From patent US20090105217A1, “2-PHENYL-5-AMINO-1,3,4-OXADIAZOLES AND THEIR USE AS NICOTINIC ACETYLCHOLINE RECEPTOR LIGANDS” (priority 2007, published 2009)

molecular target: T1, human α7 nAChR (Homo sapiens, UniProt P36544); test: α7 nAChR FLIPR (Fluorometric Imaging Plate Reader) Ca2+ assay, agonist EC50; type: cell-based; details: GH4C1 cells stably transfected with human α7 nAChR; Fluo-4 Ca2+ fluorescence; Examples 194 to 205 tested as the HCl salt; read-out: pEC50 value (negative logarithm of the agonist EC50) (converted)
T1 construct: host or cells: GH4C1 cells (pituitary tumor, immortalized cell line)
Protocol: α7 nAChR FLIPR® (Fluorometric Imaging Plate Reader) Assay
Function of the heterologous expressed α7 nAChR was assessed by a FLIPR-Ca^2+ assay. Since nAChRs are non-selective cation channels with high permeability to Ca^2+, these studies were carried out by measuring changes of intracellular Ca^2+ concentration using the Ca^2+-chelating fluorescent dye Fluo-4 and FLIPR® (Fluorometric Imaging Plate Reader) technology.
GH4C1cells (pituitary tumor, immortalized cell line) stably transfected with human α7 nAChR (Biocat ID 96986), were thawed, suspended in growth medium (Ham's Nutrient Mixture F10—Ham's F10, Invitrogen 31550-023, 15% Horse Serum heat inactivated—Invitrogen 26050-047, 2.5% Foetal Bovine Serum—FBS, Gibco 10500-064, 200 μg/ml Hygromycin B—Invitrogen, 10687-010, 10 mg/L Phenol Red—Sigma, P 0290, 1 mM Glutamine—Invitrogen, 25030-024) and plated in 500 cm^2 Triple Flask.
Cells were then incubated at 30° C., 5% CO2 for 72 hours.
On the day of the experiment, cells were washed twice with Assay Buffer (AB) (145 mM NaCl, 5 mM KCl, 1 mM MgCl2, 2 mM CaCl2, 20 mM HEPES, 5.5 mM Glucose pH=7.3) containing 2.5 mM Probenecid. Changes in the intracellular Ca^2+ content of stably transfected cells were measured using the Ca^2+ chelating dye Fluo-4 (Tef Labs 0152) in conjunction with a FLIPR® (Molecular Devices). The cell permeant dye Fluo-4 was prepared to a concentration of 1 mM in 100% DMSO and 10% Pluronic acid. The dye was then diluted with AB to a final concentration of 2 μM and placed on the cells. After 45-60 minutes dye loading incubation at 37° C., the unincorporated dye was removed from the cells by washing (80 μL, 3 times) with AB, and a final volume of 30 μL/well of AB was left in each well.
Plates containing test compounds (dissolved in 100% DMSO at 2 mM and serially diluted with DMSO) were copied into “daughter” plates (1 μL/well dispensation). Just prior to starting the assay, the “daughter” plate was diluted with 50 μL/well of AB.
The plates were then placed in the FLIPR®, and cell fluorescence was determined before drug addition (30 seconds) and monitored (excitation 488 nm, emission 510-580 nm) immediately following exposure to compounds. Maximum fluorescence values were recorded and fitted for agonist EC50 calculations.
The results are expressed as pEC50 values. A pEC50 is the negative logarithm of the agonist EC50 calculation as determined in the α7 nAChR FLIPR® assay. […] Variations in pEC50 may arise between tests.

T1 sequence (P36544 23-502): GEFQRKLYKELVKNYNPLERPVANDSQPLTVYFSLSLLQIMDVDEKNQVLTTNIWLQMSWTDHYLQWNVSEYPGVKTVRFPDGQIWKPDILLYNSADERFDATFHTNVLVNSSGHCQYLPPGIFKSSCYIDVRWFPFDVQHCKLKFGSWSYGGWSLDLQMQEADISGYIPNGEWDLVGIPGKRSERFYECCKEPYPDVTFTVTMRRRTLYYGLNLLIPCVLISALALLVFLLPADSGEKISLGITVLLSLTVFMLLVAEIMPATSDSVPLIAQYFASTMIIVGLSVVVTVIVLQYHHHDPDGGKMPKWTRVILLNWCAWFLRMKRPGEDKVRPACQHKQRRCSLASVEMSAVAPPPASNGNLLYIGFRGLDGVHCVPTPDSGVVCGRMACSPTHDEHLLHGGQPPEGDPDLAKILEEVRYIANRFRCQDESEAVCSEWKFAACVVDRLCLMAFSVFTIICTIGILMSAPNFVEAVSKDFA

Row | SMILES | EC50 [µM]
1 | COc1cc(NC(=O)C2CCCCC2)ccc1-c1nnc(NCCCN2CCOCC2)o1 [Example 79, N-[3-(methyloxy)-4-(5-{[3-(4-morpholinyl)propyl]amino}-1,3,4-oxadiazol-2-yl)phenyl]cyclohexanecarboxamide] | ≤ 1
2 | COc1cc(NC(=O)C2CCCCC2)ccc1-c1nnc(NCCCCN2CCOCC2)o1 [Example 80, N-[3-(methyloxy)-4-(5-{[4-(4-morpholinyl)butyl]amino}-1,3,4-oxadiazol-2-yl)phenyl]cyclohexanecarboxamide] | ≤ 1
3 | CCN(CC)CCCNc1nnc(-c2ccc(NC(=O)C3CCCCC3)cc2OC)o1 [Example 81, N-[4-(5-{[3-(diethylamino)propyl]amino}-1,3,4-oxadiazol-2-yl)-3-(methyloxy)phenyl]cyclohexanecarboxamide] | ≤ 1
4 | CCN(CC)CCCCNc1nnc(-c2ccc(NC(=O)C3CCCCC3)cc2OC)o1 [Example 82, N-[4-(5-{[4-(diethylamino)butyl]amino}-1,3,4-oxadiazol-2-yl)-3-(methyloxy)phenyl]cyclohexanecarboxamide] | ≤ 1
5 | COc1cc(NC(=O)C2CCCCC2)ccc1-c1nnc(NCCCCN2CCCCC2)o1 [Example 83, N-[3-(methyloxy)-4-(5-{[4-(1-piperidinyl)butyl]amino}-1,3,4-oxadiazol-2-yl)phenyl]cyclohexanecarboxamide] | ≤ 0.1
6 | O=C(Nc1ccc(-c2nnc(NCCCN3CCCC3)o2)c(C(F)(F)F)c1)c1ccccc1F [Example 84, 2-fluoro-N-[4-(5-{[3-(1-pyrrolidinyl)propyl]amino}-1,3,4-oxadiazol-2-yl)-3-(trifluoromethyl)phenyl]benzamide] | ≤ 1
7 | O=C(Nc1ccc(-c2nnc(NCCCCN3CCCC3)o2)c(C(F)(F)F)c1)c1ccccc1F [Example 85, 2-fluoro-N-[4-(5-{[4-(1-pyrrolidinyl)butyl]amino}-1,3,4-oxadiazol-2-yl)-3-(trifluoromethyl)phenyl]benzamide] | ≤ 0.1
8 | O=C(Nc1ccc(-c2nnc(NCCCN3CCOCC3)o2)c(C(F)(F)F)c1)c1ccccc1F [Example 86, 2-fluoro-N-[4-(5-{[3-(4-morpholinyl)propyl]amino}-1,3,4-oxadiazol-2-yl)-3-(trifluoromethyl)phenyl]benzamide] | ≤ 1
9 | O=C(Nc1ccc(-c2nnc(NCCCCN3CCOCC3)o2)c(C(F)(F)F)c1)c1ccccc1F [Example 87, 2-fluoro-N-[4-(5-{[4-(4-morpholinyl)butyl]amino}-1,3,4-oxadiazol-2-yl)-3-(trifluoromethyl)phenyl]benzamide] | ≤ 1
10 | CCN(CC)CCCNc1nnc(-c2ccc(NC(=O)c3ccccc3F)cc2C(F)(F)F)o1 [Example 88, N-[4-(5-{[3-(diethylamino)propyl]amino}-1,3,4-oxadiazol-2-yl)-3-(trifluoromethyl)phenyl]-2-fluorobenzamide] | ≤ 1
11 | CCN(CC)CCCCNc1nnc(-c2ccc(NC(=O)c3ccccc3F)cc2C(F)(F)F)o1 [Example 89, N-[4-(5-{[4-(diethylamino)butyl]amino}-1,3,4-oxadiazol-2-yl)-3-(trifluoromethyl)phenyl]-2-fluorobenzamide] | ≤ 0.1
12 | O=C(Nc1ccc(-c2nnc(NCCCCN3CCCCC3)o2)c(C(F)(F)F)c1)c1ccccc1F [Example 90, 2-fluoro-N-[4-(5-{[4-(1-piperidinyl)butyl]amino]-1,3,4-oxadiazol-2-yl)-3-(trifluoromethyl)phenyl]benzamide] | ≤ 0.1
13 | O=C(Nc1ccc(-c2nnc(NCCCN3CCCC3)o2)c(C(F)(F)F)c1)c1ccccc1 [Example 91, N-[4-(5-{[3-(1-pyrrolidinyl)propyl]amino}-1,3,4-oxadiazol-2-yl)-3-(trifluoromethyl)phenyl]benzamide] | ≤ 1
14 | O=C(Nc1ccc(-c2nnc(NCCCCN3CCCC3)o2)c(C(F)(F)F)c1)c1ccccc1 [Example 92, N-[4-(5-{[4-(1-pyrrolidinyl)butyl]amino}-1,3,4-oxadiazol-2-yl)-3-(trifluoromethyl)phenyl]benzamide] | ≤ 0.1
15 | O=C(Nc1ccc(-c2nnc(NCCCN3CCOCC3)o2)c(C(F)(F)F)c1)c1ccccc1 [Example 93, N-[4-(5-{[3-(4-morpholinyl)propyl]amino}-1,3,4-oxadiazol-2-yl)-3-(trifluoromethyl)phenyl]benzamide] | ≤ 1
16 | O=C(Nc1ccc(-c2nnc(NCCCCN3CCOCC3)o2)c(C(F)(F)F)c1)c1ccccc1 [Example 94, N-[4-(5-{[4-(4-morpholinyl)butyl]amino}-1,3,4-oxadiazol-2-yl)-3-(trifluoromethyl)phenyl]benzamide] | ≤ 0.1

Row | SMILES | EC50 [µM]
17 | CCN(CC)CCCNc1nnc(-c2ccc(NC(=O)c3ccccc3)cc2C(F)(F)F)o1 [Example 95, N-[4-(5-{[3-(diethylamino)propyl]amino}-1,3,4-oxadiazol-2-yl)-3-(trifluoromethyl)phenyl]benzamide] | ≤ 1
18 | CCN(CC)CCCCNc1nnc(-c2ccc(NC(=O)c3ccccc3)cc2C(F)(F)F)o1 [Example 96, N-[4-(5-{[4-(diethylamino)butyl]amino}-1,3,4-oxadiazol-2-yl)-3-(trifluoromethyl)phenyl]benzamide] | ≤ 0.1
19 | O=C(Nc1ccc(-c2nnc(NCCCN3CCCCC3)o2)c(C(F)(F)F)c1)c1ccccc1 [Example 97, N-[4-(5-{[3-(1-piperidinyl)propyl]amino}-1,3,4-oxadiazol-2-yl)-3-(trifluoromethyl)phenyl]benzamide] | ≤ 1
20 | O=C(Nc1ccc(-c2nnc(NCCCCN3CCCCC3)o2)c(C(F)(F)F)c1)c1ccccc1 [Example 98, N-[4-(5-{[4-(1-piperidinyl)butyl]amino}-1,3,4-oxadiazol-2-yl)-3-(trifluoromethyl)phenyl]benzamide] | ≤ 0.1
21 | O=C(Nc1ccc(-c2nnc(NCCCN3CCCC3)o2)c(Cl)c1)c1ccccc1 [Example 99] | ≤ 1
22 | O=C(Nc1ccc(-c2nnc(NCCCCN3CCCC3)o2)c(Cl)c1)c1ccccc1 [Example 100, N-[3-chloro-4-(5-{[4-(1-pyrrolidinyl)butyl]amino}-1,3,4-oxadiazol-2-yl)phenyl]benzamide] | ≤ 0.1
23 | O=C(Nc1ccc(-c2nnc(NCCCN3CCOCC3)o2)c(Cl)c1)c1ccccc1 [Example 101, N-[3-chloro-4-(5-{[3-(4-morpholinyl)propyl]amino}-1,3,4-oxadiazol-2-yl)phenyl]benzamide] | ≤ 1
24 | O=C(Nc1ccc(-c2nnc(NCCCCN3CCOCC3)o2)c(Cl)c1)c1ccccc1 [Example 102, N-[3-chloro-4-(5-{[4-(4-morpholinyl)butyl]amino}-1,3,4-oxadiazol-2-yl)phenyl]benzamide] | ≤ 0.1
25 | CCN(CC)CCCNc1nnc(-c2ccc(NC(=O)c3ccccc3)cc2Cl)o1 [Example 103, N-[3-chloro-4-(5-{[3-(diethylamino)propyl]amino}-1,3,4-oxadiazol-2-yl)phenyl]benzamide] | ≤ 1
26 | CCN(CC)CCCCNc1nnc(-c2ccc(NC(=O)c3ccccc3)cc2Cl)o1 [Example 104, N-[3-chloro-4-(5-{[4-(diethylamino)butyl]amino}-1,3,4-oxadiazol-2-yl)phenyl]benzamide] | ≤ 0.1
27 | O=C(Nc1ccc(-c2nnc(NCCCN3CCCCC3)o2)c(Cl)c1)c1ccccc1 [Example 105, N-[3-chloro-4-(5-{[3-(1-piperidinyl)propyl]amino}-1,3,4-oxadiazol-2-yl)phenyl]benzamide] | ≤ 1
28 | O=C(Nc1ccc(-c2nnc(NCCCCN3CCCCC3)o2)c(Cl)c1)c1ccccc1 [Example 106, N-[3-chloro-4-(5-{[4-(1-piperidinyl)butyl]amino}-1,3,4-oxadiazol-2-yl)phenyl]benzamide] | ≤ 0.1
29 | O=C(Nc1ccc(-c2nnc(NCCCN3CCCC3)o2)c(F)c1)c1ccccc1 [Example 107, N-[3-fluoro-4-(5-{[3-(1-pyrrolidinyl)propyl]-amino}-1,3,4-oxadiazol-2-yl)phenyl]benzamide] | ≤ 1
30 | O=C(Nc1ccc(-c2nnc(NCCCCN3CCCC3)o2)c(F)c1)c1ccccc1 [Example 108, N-[3-fluoro-4-(5-{[4-(1-pyrrolidinyl)butyl]amino}-1,3,4-oxadiazol-2-yl)phenyl]benzamide] | ≤ 0.1
31 | CCN(CC)CCCNc1nnc(-c2ccc(NC(=O)c3ccccc3)cc2F)o1 [Example 111, N-[4-(5-{[3-(diethylamino)propyl]amino}-1,3,4-oxadiazol-2-yl)-3-fluorophenyl]benzamide] | ≤ 1
